Results on 3 compounds are retold here after US10912771B1, “Methods for the administration of certain VMAT2 inhibitors” (Neurocrine Biosciences, Inc., priority 2017, dated 2021).

The nature of series [1]: Phase 1 open-label one-sequence crossover drug-interaction study: plasma pharmacokinetics of NBI-98854 and metabolites with and without rifampin. Conditions: for CL/F / AUC(0-inf) / Cmax / MRT / Tmax / AUC(0-t) / t1/2: N = 11; for CL/F / AUC(0-inf) / Cmax / MRT / AUC(0-t) / t1/2: Mean (SD); for half-life / AUC(0-inf) / Cmax / MRT / Tmax / AUC(0-t): both sexes, human, oral; for half-life: read-out: Mean t1/2 (converted); for AUC(0-inf) / Cmax / MRT / Tmax / AUC(0-t) / t1/2: plasma NBI-98854; for Tmax: Median (mm, max), read-out: tmax; for AUC(0-t): plasma. It counts as in vivo, human. As to the method: (§1) Subjects received a single dose of 80 mg valbenazine tosylate on Days 1 and 11 between 0800 and 1000 hours. In addition, subjects received 600 mg rifampin (300 mg×2 capsules) once daily on Days 5 (after collection of the 96-hour PK sample) through 14 between 0830 and 1030 hours. Subjects were required to fast overnight before receiving the study drugs (valbenazine tosylate and rifampin). Subjects were discharged from the study center on Day 15 (final study day or upon early termination) after all safety evaluations and study assessments had been completed.
Safety was assessed throughout the study.
NBI-98854 40 mg capsules were administered orally. The dose of NBI-98854 was based on ditosylate salt (dose expressed as free base). Subjects received a single dose of NBI-98854 80 mg (as two 40 mg capsules) twice during the study, on Days 1 and 11.
Rifampin 300 mg capsules were administered orally. Subjects received a single dose of rifampin 600 mg (as two 300 mg capsules) on Days 5 (after collection of the 96 hour NBI-98854 PK sample) through 14 between 0830 and 1030 hours.
The following plasma PK parameters were calculated only for NBI-98854: • Apparent systemic clearance after oral administration (CL/F) • Apparent volume of distribution during the terminal phase after oral administration (Vz/F)
The last significant figure was rounded up if the digit to the right of it was >5, and was rounded down if the digit to the right of it was […].
The last significant figure was rounded up if the digit to the right of it was ≥5, and was rounded down if the digit to the right of it was ≤4.
(§2) An analysis of variance (ANOVA) model was used to compare AUC0-∞ and Cmax for NBI-98854 administered with rifampin (“test”) versus AUC0-∞ and Cmax for NBI-98854 alone (“reference”). The PK parameters for metabolites of NBI-98854 and rifampin were also evaluated. Safety data were summarized using descriptive statistics.

Series [2] is described as follows: Phase 1 drug-interaction study: safety, treatment-emergent adverse events. It counts as in vivo, human. As for the experimental part: as §1, §2
The next series deals with T1, VMAT2 (Homo sapiens, UniProt Q05940).
T1 construct: from tissue; host or cells: human platelets (homogenates)
The series can be described thus: Inhibition of [3H]-DHTBZ binding to human platelets.

The target in another series is T2, human VMAT1 transporter (Homo sapiens, UniProt P54219).
T2 construct: expressed in transfected cells
T2 sequence (P54219 1-525): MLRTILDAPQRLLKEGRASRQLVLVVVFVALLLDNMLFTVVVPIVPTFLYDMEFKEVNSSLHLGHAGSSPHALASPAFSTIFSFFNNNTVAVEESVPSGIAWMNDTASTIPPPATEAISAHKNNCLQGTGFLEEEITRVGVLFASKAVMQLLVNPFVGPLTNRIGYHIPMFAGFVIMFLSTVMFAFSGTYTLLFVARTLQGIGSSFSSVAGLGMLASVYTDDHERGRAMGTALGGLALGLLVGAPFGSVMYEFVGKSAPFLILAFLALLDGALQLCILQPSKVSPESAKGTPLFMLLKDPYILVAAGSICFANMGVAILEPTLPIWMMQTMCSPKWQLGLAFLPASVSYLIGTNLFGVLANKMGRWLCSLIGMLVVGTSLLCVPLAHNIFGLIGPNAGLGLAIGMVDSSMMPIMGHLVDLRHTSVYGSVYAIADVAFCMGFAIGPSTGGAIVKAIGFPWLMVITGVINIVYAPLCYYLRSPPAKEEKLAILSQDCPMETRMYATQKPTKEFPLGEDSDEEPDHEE
Kind of series: Uptake in cells expressing VMAT1. It counts as cell-based. To be noted: TBZ, VBZ and metabolites at concentrations up to 10 μM, listed as VBZ.

Series [3] in a line: Ptosis, in vivo surrogate measure of pharmacological effect.
In the next series the test system is CYP enzymes. Conditions: human.
For the next series, the target named is Serotonin 5-HT7 (Homo sapiens, UniProt P34969). The series can be described thus: Cerep screen, Serotonin 5-HT7. Conditions: 1 or 10 μM final concentration; n=2.
The target in the next series is T3, Serotonin 5-HT1A (Homo sapiens, UniProt P08908).
T3 sequence (P08908 1-422): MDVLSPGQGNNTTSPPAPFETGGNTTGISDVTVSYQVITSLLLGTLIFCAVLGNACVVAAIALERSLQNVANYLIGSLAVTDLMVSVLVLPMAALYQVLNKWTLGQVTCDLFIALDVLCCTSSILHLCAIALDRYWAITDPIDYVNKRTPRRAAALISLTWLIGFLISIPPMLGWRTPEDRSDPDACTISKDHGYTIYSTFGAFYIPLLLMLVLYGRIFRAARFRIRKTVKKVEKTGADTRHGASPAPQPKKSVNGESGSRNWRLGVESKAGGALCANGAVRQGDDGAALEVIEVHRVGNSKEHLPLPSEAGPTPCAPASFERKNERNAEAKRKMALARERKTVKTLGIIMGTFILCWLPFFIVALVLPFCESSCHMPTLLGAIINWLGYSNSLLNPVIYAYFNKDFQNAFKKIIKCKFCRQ
Kind of series: Cerep screen, Serotonin 5-HT1A. Conditions: 1 or 10 μM final concentration; n=2.

Series [4] relates to more than 80 targets (GPCRs, cell-surface monoamine transporters, ion channels including HERG). The series can be described thus: Cerep multi-target activity screen. To be noted: receptors, monoamine transporters, and ion channels.
In the next series the target is Dopamine D1 (Homo sapiens, UniProt P21728). The series can be described thus: Cerep screen, Dopamine D1. Conditions: radioligand binding assays and broad panel screen.
The target of a further series is Dopamine D2(s) (Homo sapiens, UniProt P14416). Kind of series: Cerep screen, Dopamine D2(s). To be noted: radioligand binding assays and broad panel screen.
Setting [5] is: NBI-98854 80 mg + rifampin 600 mg.
Setting [6] is: plasma analyte, NBI-98854 plus rifampin compared with NBI-98854 alone.
The mark [7] stands for this setting: Safety Analysis Set, healthy subjects, by treatment period.

Entries after “also recorded” stand apart in the source; their conditions may differ. Read-outs that look alike come from different tables or passages of the source.

Dopamine D2(s), sequence (P14416 1-414 isoform P14416-2): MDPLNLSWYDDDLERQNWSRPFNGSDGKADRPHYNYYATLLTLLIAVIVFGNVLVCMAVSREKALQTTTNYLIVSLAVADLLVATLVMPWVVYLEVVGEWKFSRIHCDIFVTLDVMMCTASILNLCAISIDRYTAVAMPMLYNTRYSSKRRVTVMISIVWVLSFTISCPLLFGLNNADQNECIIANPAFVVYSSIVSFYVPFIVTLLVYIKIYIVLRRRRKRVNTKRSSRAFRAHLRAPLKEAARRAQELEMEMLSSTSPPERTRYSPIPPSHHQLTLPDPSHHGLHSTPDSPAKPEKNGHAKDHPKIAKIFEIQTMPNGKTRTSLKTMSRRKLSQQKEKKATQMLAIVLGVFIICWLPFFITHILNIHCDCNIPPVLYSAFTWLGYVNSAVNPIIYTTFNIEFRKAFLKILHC
Dopamine D1, sequence (P21728 whole entry): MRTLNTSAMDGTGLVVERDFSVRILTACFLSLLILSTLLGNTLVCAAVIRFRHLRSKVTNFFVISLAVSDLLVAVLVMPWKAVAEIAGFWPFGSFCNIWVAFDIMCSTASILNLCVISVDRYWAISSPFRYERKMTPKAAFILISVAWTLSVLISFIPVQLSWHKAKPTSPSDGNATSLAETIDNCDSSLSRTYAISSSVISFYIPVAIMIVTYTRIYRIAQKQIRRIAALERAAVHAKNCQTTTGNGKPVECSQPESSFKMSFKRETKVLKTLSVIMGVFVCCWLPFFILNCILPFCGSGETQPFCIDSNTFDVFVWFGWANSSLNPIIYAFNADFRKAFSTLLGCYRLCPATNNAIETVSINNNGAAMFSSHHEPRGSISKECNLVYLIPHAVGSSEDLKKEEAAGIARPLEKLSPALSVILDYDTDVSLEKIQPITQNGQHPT
T1 sequence (Q05940 whole entry): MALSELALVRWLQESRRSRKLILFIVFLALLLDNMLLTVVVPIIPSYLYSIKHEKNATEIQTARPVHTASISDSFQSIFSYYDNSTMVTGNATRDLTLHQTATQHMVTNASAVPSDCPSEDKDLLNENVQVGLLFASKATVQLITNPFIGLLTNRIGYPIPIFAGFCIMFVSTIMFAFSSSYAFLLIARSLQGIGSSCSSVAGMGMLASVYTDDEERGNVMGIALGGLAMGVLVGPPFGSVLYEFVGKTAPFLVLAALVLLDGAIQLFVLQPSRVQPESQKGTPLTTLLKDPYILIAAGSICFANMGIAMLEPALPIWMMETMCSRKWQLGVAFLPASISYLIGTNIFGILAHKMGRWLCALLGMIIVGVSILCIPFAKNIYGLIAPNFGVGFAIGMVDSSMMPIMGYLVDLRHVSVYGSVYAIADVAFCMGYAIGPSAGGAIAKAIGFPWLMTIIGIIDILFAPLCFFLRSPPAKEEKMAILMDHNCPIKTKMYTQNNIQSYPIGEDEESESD
Serotonin 5-HT7, sequence (P34969 whole entry): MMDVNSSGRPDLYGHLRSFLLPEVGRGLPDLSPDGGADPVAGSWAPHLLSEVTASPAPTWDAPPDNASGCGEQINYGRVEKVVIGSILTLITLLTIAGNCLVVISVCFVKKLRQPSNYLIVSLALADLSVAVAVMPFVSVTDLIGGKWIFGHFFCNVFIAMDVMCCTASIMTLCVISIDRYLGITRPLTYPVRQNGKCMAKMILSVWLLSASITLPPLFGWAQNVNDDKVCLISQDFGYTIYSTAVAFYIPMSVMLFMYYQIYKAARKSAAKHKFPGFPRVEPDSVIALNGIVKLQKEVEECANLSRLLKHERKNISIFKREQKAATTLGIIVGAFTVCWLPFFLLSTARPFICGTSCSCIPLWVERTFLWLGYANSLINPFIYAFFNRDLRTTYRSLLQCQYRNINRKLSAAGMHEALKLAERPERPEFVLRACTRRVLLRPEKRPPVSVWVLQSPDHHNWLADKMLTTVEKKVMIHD

On to `COc1cc2c(cc1OC)[C@H]1C[C@@H](OC(=O)[C@@H](N)C(C)C)[C@H](CC(C)C)CN1CC2` [NBI-98854, (S)-2-amino-3-methyl-butyric acid (2R, 3R,11bR)-3-isobutyl-9,10-dimethoxy-1,3,4,6,7,11b-hexahydro-2H-pyrido[2,1-a]isoquinolin-2-yl ester], for which, in series [1] (setting [5]), the CL/F was 50.3 (11.4) L/hr, the area under the curve AUC(0-inf) is 1700 ng·h/mL, the Cmax amounted to 542 ng/mL and the mean residence time (MRT) is 8.7 h. Besides, in series [1] (setting [5]), the Tmax came to 0.75 h and the t1/2 is reported as 10 (2.1) hours. Besides, in [1] (NBI-98854 80 mg alone), the CL/F was 13.8 (2.77) L/hr, the area under the curve AUC(0-inf) is 6020 ng·h/mL, the Cmax stood at 795 ng/mL and the mean residence time MRT stood at 17 h. Besides, in series [1] (NBI-98854 80 mg alone), the Tmax worked out at 0.75 h and the t1/2 is on record as 16 (2.3) hours. Besides, in [1] (80 mg, plasma analyte, NBI-98854 alone), the half-life was 16 h. In addition, in [1] (plasma analyte, NBI-98854 administered with rifampin), the half-life is 10 h. Also, in [1] (80 mg, NBI-98854 80 mg alone, read-out: AUC0-24), the AUC(0-t) amounted to 4480 ng·h/mL. Further, the AUC(0-t) in series [1] (80 mg, NBI-98854 80 mg alone, read-out: AUC0-tlast) was found to be 5930 ng·h/mL. Besides, the AUC(0-t) in series [1] (NBI-98854 80 mg + rifampin 600 mg, read-out: AUC0-24) came out at 1510 ng·h/mL. In addition, the AUC(0-t) in series [1] (NBI-98854 80 mg + rifampin 600 mg, read-out: AUC0-tlast) amounted to 1670 ng·h/mL. In series [1] (setting [6]), the “decrease in AUC0-∞” value is reported as around 70% and the “decrease in Cmax” value is listed as around 30%. Also, the Tolerability result in series [2] (80 mg in healthy subjects, alone or concomitantly with rifampin) was “well tolerated”. In addition, in series [2] (setting [7]), the “Subjects who experienced a TEAE: Overall” value is given as 6 (50.0) n (%), the “TEAE: Abdominal pain” value was 1 (8.3) n (%), the “TEAE: Abdominal pain upper” value is given as 0 n (%) and the “TEAE: Arthropod bite” value is recorded as 1 (8.3) n (%). Also, in series [2] (setting [7]), the “TEAE: Chromaturia” value was 0 n (%), the “TEAE: Headache” value was 3 (25.0) n (%), the “TEAE: Hypoaesthesia” value was 0 n (%) and the “TEAE: Non-cardiac chest pain” value was 0 n (%). For the same compound, in [2] (setting [7]), the “TEAE: Paraesthesia” value is reported as 0 n (%) and the “TEAE: Vessel puncture site haemorrhage” value is given as 1 (8.3) n (%). For the same compound, the “Affinity Relative to R,R,R-DHTBZ” value at VMAT2 is 45. In addition, on VMAT2 (n=4), the “pKi mean (SEM)” value is reported as 6.82 (0.02). Besides, on human VMAT1 transporter, the “inhibition of uptake through VMAT1” value is listed as “no significant inhibitory activity; also recorded: no significant effect”. Further, the induction of ptosis result in series [3] is reported as “induced ptosis in an equivalent manner”. The “enzymes involved in oxidative metabolism” value with CYP enzymes was “CYP3A4/5 is the major enzyme”. Besides, the “percent of control specific binding, Serotonin 5-HT7” value at Serotonin 5-HT7 was 4%. Moreover, on Serotonin 5-HT1A, the “percent of control specific binding, Serotonin 5-HT1A” value is reported as 26%. Moreover, the “affinity for more than 80 binding sites” value in series [4] is listed as “little to no affinity”.
Turning to `COc1cc2c(cc1OC)[C@@H]1C[C@@H](O)[C@@H](CC(C)C)CN1CC2` [R,S,S-DHTBZ], the “interaction with D1 receptors” value at Dopamine D1 was “interact with D1 and D2 receptors”. In addition, the “interaction with D2 receptors” value on Dopamine D2(s) was “interact with D1 and D2 receptors”.
For `COc1cc2c(cc1OC)[C@@H]1C[C@H](O)[C@@H](CC(C)C)CN1CC2` [S,S,S-DHTBZ], the “interaction with D1 receptors” value at Dopamine D1 was “interact with D1 and D2 receptors”. In addition, the “interaction with D2 receptors” value on Dopamine D2(s) is “interact with D1 and D2 receptors”.

As usually defined, the AUC(0-inf) is total exposure, with the tail of the curve extrapolated. In general, Cmax refers to the highest concentration seen after dosing. The term MRT denotes the average time that molecules of a dose stay in the body. Broadly, the Tmax is the time from dosing to the highest level.
